{"source": "patent US20190276389A1", "about": "“SYNTHESIS OF ARYL CYCLOHEXANE ESTER DERIVATIVES USEFUL AS SENSATES IN CONSUMER PRODUCTS” (The Procter & Gamble Company, priority 2015, published 2019)", "key": {"[1]": {"assay": "Sensory evaluation of cooling intensity after brushing with dentifrice", "assay_type": "in vivo", "settings": "avg 7 panelists, dentifrice with 0.001% (10 ppm) coolant", "protocol": "Dentifrices were prepared using conventional methods, such as the protocols described in U.S. Pat. No. 8,747,814, which contained no coolant (SAMPLE A—Crest Cavity Protection) or having a coolant from TABLE 1 (SAMPLE B), in a flavor (wintergreen) at 10 parts per million (ppm).\nSensory evaluation studies of coolant activity were conducted using a methodology patterned after the techniques described in M. C. Meilgaard, et al., Sensory Evaluation Techniques, 4th Ed. (2007). Seven panelists brushed with a dentifrice from TABLE 2, having no coolant (SAMPLE A) or having a coolant from TABLE 1 (SAMPLE B), for two minutes, in a flavor (wintergreen) at 10 parts per million (ppm). After brush expectoration, panelists then rinsed their mouth with 15 ml of an aqueous rinse and expectorated."}, "human TRPM8 [2]": {"target": "human TRPM8", "assay": "TRPM8 Protocol-FLIPR Assay (intracellular Ca2+ in HEK-293 cells stably transfected with human TRPM8)", "assay_type": "cell-based", "settings": "HEK-293 cells stably transfected with human TRPM8, Fluo-4 AM, read-out: TRPM8 EC 50 Value", "protocol": "(§1) Trypsin was inactivated by addition of 8 ml growth medium. Cells were transferred to a 50 ml tube and centrifuged at 850 rpm for 3 minutes to remove medium. After centrifugation, a pellet of cells was formed in the bottom of the tube separating them from the supernatant solution. […] Fluo-4 AM is a fluorescent dye used for quantifying cellular Ca^2+ concentrations in the 100 nM to 1 microM range. At the end of 30 minutes, 45 ml of assay buffer (1×BSS (Hank's Balanced Salt Solution), 20 mM HEPES (4-(2-Hydroxyethyl)-1-piperazineethanesulfonic acid)) was added to wash cells and the resulting mixture was then centrifuged at 850 rpm for 3 minutes to remove excess buffer and Fluo-4 AM calcium indicator.\n(§2) The pelleted cells were re-suspended in 10 ml assay buffer and 90 μl aliquots (˜50,000 cells) per well delivered to a 96-well assay plate containing 10 μl of test compounds (1 mM in assay buffer, final concentration 100 μM) or buffer control and incubated at room temperature for 30 minutes. After 30 minutes, a plate was placed into a fluorometric imaging plate reader (FLIPR384 from Molecular Devices, Sunnyvale, Calif.) and basal fluorescence recorded (excitation wave length 488 nm and emission wave length 510 nm). Then 20 μl of […] of TRPM8 agonist WS5 coolant in the assay buffer was added and fluorescence recorded. For determining the direct effect of test compounds on TRPM8, fluorescence was measured immediately after addition of each compound (TABLE 1)."}, "human TRPM8 [3]": {"target": "human TRPM8 (UniProt Q8R4D5)", "assay": "TRPM8 Protocol-FLIPR Assay (intracellular Ca2+ in HEK-293 cells stably transfected with human TRPM8)", "assay_type": "cell-based", "settings": "HEK-293 cells stably transfected with human TRPM8, Fluo-4 AM", "protocol": "as §1, §2"}, "[4]": {"settings": "concentration where the cooling effect could be clearly recognized; cited from earlier work"}}, "data": [{"smiles": "CC(C)[C@@H]1CC[C@@H](C)C[C@H]1C(=O)OC[C@@H](NC(=O)[C@@H](C)N)c1ccccc1.Cl", "note": "[#1]", "values": [{"measurement": "Cooling Rating (0-90) of Dentifrice", "setting": "[1]; Time 0 min, wintergreen flavor, 0 = no cooling, 90 = cold as ice", "value": 33.57}, {"measurement": "Cooling Rating (0-90) of Dentifrice", "setting": "[1]; Time 15 min", "value": 32.71}, {"measurement": "Cooling Rating (0-90) of Dentifrice", "setting": "[1]; Time 30 min", "value": 26.43}, {"measurement": "Cooling Rating (0-90) of Dentifrice", "setting": "[1]; Time 60 min", "value": 35.71}, {"measurement": "Cooling Rating (0-90) of Dentifrice", "setting": "[1]; Time 120 min", "value": 40.00}, {"measurement": "Cooling Rating (0-90) of Dentifrice", "setting": "[1]; Time 180 min", "value": 36.43}, {"measurement": "Cooling Rating (0-90) of Dentifrice", "setting": "[1]; Time 240 min", "value": 34.29}, {"measurement": "Cooling Rating (0-90) of Dentifrice", "setting": "[1]; Time 300 min", "value": 30.71}, {"measurement": "Cooling Rating (0-90) of Dentifrice", "setting": "[1]; Time 360 min", "value": 30.71}, {"measurement": "Cooling Rating (0-90) of Dentifrice", "setting": "[1]; Time 420 min", "value": 23.57}, {"measurement": "Cooling Rating (0-90) of Dentifrice", "setting": "[1]; Time 480 min", "value": 20.71}, {"measurement": "EC50", "setting": "human TRPM8 [2]", "value": 8.08, "unit": "nM"}]}, {"smiles": "CC(C)[C@@H]1CC[C@@H](C)C[C@H]1OC(=O)C[C@@H](NC(=O)CN)c1ccccc1", "note": "[#2]", "values": [{"measurement": "EC50", "setting": "human TRPM8 [2]", "value": 62, "unit": "nM"}]}, {"smiles": "CC(C)[C@@H]1CC[C@@H](C)C[C@H]1C(=O)OC[C@@H](NC(=O)CNC(=O)OC(C)(C)C)c1ccccc1", "note": "[#3]", "values": [{"measurement": "EC50", "setting": "human TRPM8 [2]", "value": 23200, "unit": "nM"}]}, {"smiles": "CC(C)[C@@H]1CC[C@@H](C)C[C@H]1C(=O)OC[C@@H](NC(=O)CN)c1ccccc1", "note": "[#4]", "values": [{"measurement": "EC50", "setting": "human TRPM8 [2]", "value": 64, "unit": "nM"}]}, {"smiles": "CC1CCC(C(C)C)C(OC(=O)C(N)c2ccccc2)C1", "note": "(centres unmarked) [#5]", "values": [{"measurement": "EC50", "setting": "human TRPM8 [2]", "value": 60200, "unit": "nM"}]}, {"smiles": "CC(C)[C@@H]1CC[C@@H](C)C[C@H]1OC(=O)C[C@@H](NC(=O)OC(C)(C)C)c1ccccc1", "note": "[#6]", "values": [{"measurement": "TRPM8 EC 50 Value", "setting": "human TRPM8 [3]", "value": "Too high to measure"}]}, {"smiles": "CC1CCC(C(C)C)C(OC(=O)CC(N)c2ccccc2)C1", "note": "(centres unmarked) [#7]", "values": [{"measurement": "EC50", "setting": "human TRPM8 [2]", "value": 8000, "unit": "nM"}]}, {"smiles": "CC(C)[C@@H]1CC[C@@H](C)C[C@H]1OC(=O)C[C@@H](NC(=O)CNC(=O)OC(C)(C)C)c1ccccc1", "note": "[#8]", "values": [{"measurement": "TRPM8 EC 50 Value", "setting": "human TRPM8 [3]", "value": "Too high to measure"}]}, {"smiles": "CC(C)[C@@H]1CC[C@@H](C)C[C@H]1C(=O)OC[C@@H](OC(=O)CN)c1ccccc1", "note": "[#9]", "values": [{"measurement": "EC50", "setting": "human TRPM8 [2]", "value": 13, "unit": "nM"}]}, {"smiles": "CC(C)[C@@H]1CC[C@@H](C)C[C@H]1OC(=O)C[C@@H](NC(=O)[C@@H](C)N)c1ccccc1", "note": "[#10]", "values": [{"measurement": "EC50", "setting": "human TRPM8 [2]", "value": 36.8, "unit": "nM"}]}, {"smiles": "CC(C)[C@@H]1CC[C@@H](C)C[C@H]1C(=O)OC[C@@H](NC(=O)[C@H](C)N)c1ccccc1", "note": "[#11]", "values": [{"measurement": "EC50", "setting": "human TRPM8 [2]", "value": 343, "unit": "nM"}]}, {"smiles": "CC(C)[C@@H]1CC[C@@H](C)C[C@H]1C(=O)OC[C@@H](O)c1ccccc1", "note": "[#12]", "values": [{"measurement": "EC50", "setting": "human TRPM8 [2]", "value": 590, "unit": "nM"}]}, {"smiles": "CC(C)[C@H]1CC[C@H](C)C[C@@H]1OC(=O)C[C@@H](NC(=O)CN)c1ccccc1", "note": "[#13]", "values": [{"measurement": "EC50", "setting": "human TRPM8 [2]", "value": 882, "unit": "nM"}]}, {"smiles": "CC(C)[C@@H]1CC[C@@H](C)C[C@H]1OC(=O)C[C@@H](NC(=O)[C@H](C)N)c1ccccc1", "note": "[#14]", "values": [{"measurement": "EC50", "setting": "human TRPM8 [2]", "value": 914, "unit": "nM"}]}, {"smiles": "CC(C)[C@@H]1CC[C@@H](C)C[C@H]1OC(=O)CC(NCCN)c1ccccc1", "note": "(some centres unmarked) [#15]", "values": [{"measurement": "EC50", "setting": "human TRPM8 [2]", "value": 1960, "unit": "nM"}]}, {"smiles": "CC(C)[C@@H]1CC[C@@H](C)C[C@H]1OC(=O)CC(NCc1ccccn1)c1ccccc1", "note": "(some centres unmarked) [#16]", "values": [{"measurement": "EC50", "setting": "human TRPM8 [2]", "value": 2070, "unit": "nM"}]}, {"smiles": "CC(C)[C@@H]1CC[C@@H](C)C[C@H]1C(=O)OC[C@H](NC(=O)CN)c1ccccc1", "note": "[#17]", "values": [{"measurement": "EC50", "setting": "human TRPM8 [2]", "value": 2260, "unit": "nM"}]}, {"smiles": "CC(C)[C@@H]1CC[C@@H](C)C[C@@H]1OC(=O)C[C@@H](NC(=O)CN)c1ccccc1", "note": "[#18]", "values": [{"measurement": "EC50", "setting": "human TRPM8 [2]", "value": 2950, "unit": "nM"}]}, {"smiles": "CC(C)[C@@H]1CC[C@@H](C)C[C@H]1OC(=O)C(Cc1ccccc1)NC(=O)CN", "note": "(some centres unmarked) [#19]", "values": [{"measurement": "EC50", "setting": "human TRPM8 [2]", "value": 4280, "unit": "nM"}]}, {"smiles": "CC(C)[C@@H]1CC[C@@H](C)C[C@H]1C(=O)OC[C@@H](OC(=O)CNC(=O)OC(C)(C)C)c1ccccc1", "note": "[#20]", "values": [{"measurement": "EC50", "setting": "human TRPM8 [2]", "value": 4470, "unit": "nM"}]}, {"smiles": "CC(C)[C@H]1CC[C@@H](C)C[C@@H]1OC(=O)C[C@@H](NC(=O)CN)c1ccccc1", "note": "[#21]", "values": [{"measurement": "EC50", "setting": "human TRPM8 [2]", "value": 4960, "unit": "nM"}]}, {"smiles": "CC(C)[C@@H]1CC[C@@H](C)C[C@H]1OC(=O)[C@@H](NC(=O)[C@H](C)N)c1ccccc1", "note": "[#22]", "values": [{"measurement": "EC50", "setting": "human TRPM8 [2]", "value": 32800, "unit": "nM"}]}, {"smiles": "CC(C)[C@@H]1CC[C@@H](C)C[C@H]1OC(=O)[C@@H](NC(=O)CN)c1ccccc1", "note": "[#23]", "values": [{"measurement": "EC50", "setting": "human TRPM8 [2]", "value": 34100, "unit": "nM"}]}, {"smiles": "CC(C)[C@@H]1CC[C@@H](C)C[C@H]1OC(=O)CCCCCN", "note": "[#25]", "values": [{"measurement": "EC50", "setting": "human TRPM8 [2]", "value": 9500, "unit": "nM"}]}, {"smiles": "CC(C)[C@@H]1CC[C@@H](C)C[C@H]1C(=O)OC[C@@H](OC(=O)[C@@H]1C[C@H](C)CC[C@H]1C(C)C)c1ccccc1", "note": "[#26]", "values": [{"measurement": "EC50", "setting": "human TRPM8 [2]", "value": 139000, "unit": "nM"}]}, {"smiles": "CC(C)[C@@H]1CC[C@@H](C)C[C@H]1COC(=O)C(NC(=O)CN)c1ccccc1", "note": "(some centres unmarked) [#27]", "values": [{"measurement": "EC50", "setting": "human TRPM8 [2]", "value": 145000, "unit": "nM"}]}, {"smiles": "CC(C)[C@@H]1CC[C@@H](C)CC1OC(=O)c1ccccc1NC(=O)CN", "note": "(some centres unmarked) [#34]", "values": [{"measurement": "EC50", "setting": "human TRPM8 [2]", "value": 19000, "unit": "nM"}]}, {"smiles": "CC(C)[C@@H]1CC[C@@H](C)C[C@H]1O", "note": "[L-menthol]", "values": [{"measurement": "cooling threshold", "setting": "[4]", "value": "about 800 ppb"}]}, {"smiles": "CC(C)[C@@H]1CC[C@@H](C)C[C@@H]1O", "note": "[Sample 1-neomenthol, 1-neomenthol]", "values": [{"measurement": "cooling threshold", "setting": "[4]", "value": "about 3,000 ppb"}]}, {"smiles": "CC(C)[C@@H]1CC[C@@H](C)C[C@@H]1O", "note": "[d-neomenthol]", "values": [{"measurement": "cooling threshold", "setting": "[4]", "value": "about 25,000 ppb"}]}]}
